# In publication PMC2185977 (The Journal of Experimental Medicine, 1980):
# Columns and labels:
# IgMWEA [1] = experiment: Quantitative precipitin reaction of purified IgMWEA with polysaccharides; type: binding, human; settings: ~8 μg N purified IgMWEA, total volume 350 μl, Fig. 1A
# IgMMAY = experiment: Quantitative precipitin inhibition, IgMMAY + Klebsiella K21; type: binding, human; settings: for inhibition of precipitation of IgMMAY by Klebsiella K21: 25 μl 1:5 dilution IgMMAY + 1.6 μg Klebsiella K21, Fig. 3B; for times more active than pyruvate in inhibiting the Klebsiella K21 precipitin reaction: IgMMAY
# IgMWEA [2] = experiment: Quantitative precipitin inhibition, IgMWEA + Bacto agar 20C extract; type: binding, human; settings: for inhibition of precipitation of IgMWEA by agar: even at 100 μmol inhibitor; for times more active than sodium pyruvate on a molar basis: inhibiting precipitation of IgMWEA by agar
# IgMWEA [3] = experiment: Precipitin inhibition, IgMWEA-Helix pomatia galactan; type: binding, human; settings: data not shown
# anti-Klebsiella K11 = settings: cited from earlier work
Molecule,precipitin reaction with IgMWEA (IgMWEA [1]),inhibition of precipitation of IgMMAY by Klebsiella K21 (IgMMAY),also measured
heparin,failed to precipitate,–,–
"O=P(O)(O)O[C@H]1O[C@H](CO)[C@@H](O)[C@H](O)[C@H]1O [D-glucose-1-phosphate, D-glucose-l-phosphate]",–,no inhibition,–
"CO[C@H]1O[C@H](CO)[C@H](O)[C@H](O)[C@H]1O [methyl α-DGal, methyl a-DGal]",–,no inhibition,inhibition of precipitation of IgMWEA by agar (IgMWEA [2]): no inhibition
"COC1OC(CO)C(O)C(O)C1O (stereo not drawn) [methyl β-DGal, methyl /~-DGal]",–,no inhibition,inhibition of precipitation of IgMWEA by agar (IgMWEA [2]): no inhibition
O=P(O)(O)O[C@H]1O[C@H](CO)[C@H](O)[C@H](O)[C@H]1O [D-galactose-1-phosphate],–,no inhibition,–
Larch arabinogalactan,inactive,–,–
"CO[C@H]1O[C@@H]2CO[C@@](C)(C(=O)O)O[C@@H]2[C@H](O)[C@H]1O (single isomer, unassigned) [methyl 4,6pyDGalα R isomer]",–,–,times more active than pyruvate in inhibiting the Klebsiella K21 precipitin reaction (IgMMAY): 150 times; times more active than sodium pyruvate on a molar basis (IgMWEA [2]): > 20 times
CC(O)C(=O)[O-].[Na+] (stereo not shown) [sodium lactate],–,–,inhibition of precipitin reaction of IgMWEA-Helix pomatia galactan (IgMWEA [3]): inactive
agarose,inactive,–,–
"O=C[C@H](O)[C@@H](O)[C@@H](O)[C@H](O)CO [DGal, D-galactose]",–,"Neither DGal, its methyl a- and/~-glycosides, nor any of the other neutral sugars tested gave any inhibition",inhibition of precipitation of IgMWEA by agar (IgMWEA [2]): no inhibition
CCC(=O)[O-].[Na+] [sodium propionate],–,–,inhibition of precipitin reaction of IgMWEA-Helix pomatia galactan (IgMWEA [3]): inactive
"CO[C@@H]1O[C@@H]2COC(C)(C(=O)O)O[C@@H]2[C@H](O)[C@H]1O (single isomer, unassigned) [methyl 4,6pyDGalβ R isomer, methyl 4,6-O-(1-carboxyethylidene) ~-o-galactopyranoside]",–,–,times more active than pyruvate in inhibiting the Klebsiella K21 precipitin reaction (IgMMAY): 150 times; times more active than sodium pyruvate on a molar basis (IgMWEA [2]): > 20 times
O=C[C@H](O)[C@@H](O)[C@@H](O)[C@H](O)COP(=O)(O)O [D-galactose-6-phosphate],–,no inhibition,–
"CO[C@H]1O[C@@H]2CO[C@@](C)(C(=O)O)O[C@@H]2[C@H](O)[C@H]1O (single isomer, unassigned) [methyl 4,6pyDGalα S isomer]",–,inactive,inhibition of Klebsiella K11-anti-Klebsiella K11 (anti-Klebsiella K11): does not inhibit
"CC(=O)C(=O)O [sodium pyruvate, Sodium pyruvate]",–,better than lactate and propionate,inhibition of precipitin reaction of IgMWEA-Helix pomatia galactan (IgMWEA [3]): inhibited
xanthan gum,failed to precipitate,–,–
keratosulfate,failed to precipitate,–,–
dextran sulfate,did react,–,–
